Experimental data: patent US20260199496A1, “LINKER, LINKER-CONTAINING ANTIBODY DRUG CONJUGATE, AND PREPARATION METHOD THEREFOR AND USE THEREOF” (CHENGDU CHIPSCREEN NEWWAY BIOSCIENCES CO., LTD., priority 2022, published 2026)
Values joined by “and” are separate entries in the source; they are usually repeats but may differ in a detail not shown here. Equal entries are not always repeated.

Columns and labels:
CT26 hPD-L1-EX cells [1] = test: Inhibition of CT26 hPD-L1-EX cell proliferation (MTS); type: cell-based; settings: replicate wells; for Inhibition % / OD490: 5 μM, 48 h
Experimental: (1) CT26 hPD-L1-EX cells were collected, and 20 μL was taken for cell counting. (2) The cells were resuspended to 0.5×10^5 cells/mL and 0.5×10^5 cells/mL (5 mL each). (3) The cell suspensions were respectively added to two 96-well plates at 50 μL/well, followed by overnight culture at 37° C. with 5% CO2. (4) The ADC sample was diluted according to predetermined concentrations and added to the well plates at 100 μL/well. (5) The cells were cultured at 37° C. with 5% CO2 for 48 h. (6) 50 μL of culture medium was first aspirated and discarded, and then an MTS reagent was added at 20 μL/well. The cells were cultured at 37° C. with 5% CO2 for another 1-4 h. (7) Readings were taken at 490 nm.

CT26 hPD-L1-EX cells [2] = test: Inhibition of CT26 hPD-L1-EX cell proliferation (CCK8); type: cell-based; settings: 2 days, CCK8, replicate wells; for Inhibition % / OD450: 10 μM
Experimental: (1) CT26 hPD-L1-EX cells were collected, and 20 μL was taken for cell counting. (2) The cells were resuspended to 2×10^5 cells/mL. (3) The cell suspension was added to a 96-well plate at 50 μL/well (1×10^4 cells/well), followed by overnight culture at 37° C. with 5% CO2. (4) The next day, the 96-well plate was taken out. The test sample was diluted with complete medium containing 10% FBS and then added to the plate at 50 µL/well to achieve a final sample concentration of 10 μM. The day of test sample addition was designated as day 0. The cells were cultured at 37° C. with 5% CO2 for another 2 days. (5) Day 2: The cell growth status was observed under a microscope, and then CCK8 was added at 10 μL/well. The cells were then cultured at 37° C. with 5% CO2 for another 4 h. (6) Absorbance values at 450 nm (OD450) were measured in real-time using a microplate reader.

[3] = tested on: A375-hPDL1-Luciferase cells; test: Inhibition of A375 in co-culture with human PBMCs (luciferase); type: cell-based; settings: PBMC:A375 E:T 5:1, Matrigel, 6 days
Experimental: Cryopreserved PBMCs were taken out from a liquid nitrogen tank and added to 8 mL of pre-heated RPMI 1640 medium, and the mixture was centrifuged at 500 g for 10 min. The supernatant was discarded, and the PBMCs were resuspended in a small amount of RPMI 1640 medium. Then, the cell suspension was 10-fold diluted, and 20 μL of dilution was taken for cell counting. The cells were resuspended to 5E6 cells/mL. The A375-hPDL1-Luciferase cell suspension was collected, and 20 μL was taken for cell counting. The cells were resuspended to 1E6 cells/mL. The PBMC and A375-hPDL1-Luciferase cell suspensions were mixed at equal volumes to prepare a cell mixture with an E:T ratio of 5:1, and the mixture was adjusted to a total volume of 1500 L using RPMI 1640 complete medium. Matrigel was thawed on ice, and 1500 L of the thawed Matrigel was mixed with the cell mixture. The resulting mixture was added to a black 384-well plate at 20 μL/well, which was then placed at 37° C. for 10 min for solidification. […] The dilutions were added to the 384-well plate at 30 μL/well, and the cells were cultured at 37° C. with 5% CO2 for 6 days. Then, the 384-well plate was taken out, and Bio-Lite Luciferase Assay System was added at 20 μL/well. The mixture was incubated for 5-10 min and then assayed using a multi-mode microplate reader. The results are shown in FIG. 31, FIG. 32, and Table 7.

hPD-L1-his = hPD-L1-his (Homo sapiens, UniProt Q9NZQ7); test: SPR (Biacore T200) affinity for hPD-L1-his; settings: 1:1 binding model
Experimental: The procedures were as follows: A CM5 chip was activated with N-hydroxysuccinimide (NHS) and 1-ethyl-3-(3-dimethylaminopropyl)carbodiimide hydrochloride (EDC) at a 1:1 (v/v) ratio. Then, an anti-his antibody was immobilized, and the chip was blocked. 1 g/mL hPD-L1-his was captured onto the chip surface. […] The program was set. The samples were then loaded, and the program was executed. Data were analyzed using the Biacore Evaluation Software with the 1:1 binding model for kinetic fitting.

Cyno PD-L1-his = test: SPR (Biacore T200) affinity for Cyno PD-L1-his; design: species or system cynomolgus monkey; settings: ligand Cyno PD-L1-His, 1:1 binding model
Experimental: (§1) […] Cyno PD-L1-his was captured onto the chip surface. The antibody-drug conjugate samples and the naked antibody sample were 2-fold diluted with 1×PBST to give a total of 7 concentration points, with the sample concentrations all being 25 nM-0.39 nM. The program was set. The samples were then loaded, and the program was executed. Data were analyzed using the Biacore Evaluation Software with the 1:1 binding model for kinetic fitting. The above steps were repeated. 2 μg/mL hPD-L1-his, 5 μg/mL mPD-L1-his, and 5 µg/mL Rat PD-L1-his were captured onto the chip surface separately. The above 4 samples were 2-fold diluted with 1×PBST. […] The program was set. The samples were then loaded, and the program was executed. Data were analyzed using the Biacore Evaluation Software with the 1:1 binding model for kinetic fitting.

mPD-L1-his = mPD-L1-his (Mus musculus, UniProt Q9EP73); test: SPR (Biacore T200) affinity for mPD-L1-his; settings: ligand mPD-L1-His, 1:1 binding model
Experimental: The program was set. The samples were then loaded, and the program was executed. Data were analyzed using the Biacore Evaluation Software with the 1:1 binding model for kinetic fitting. The above steps were repeated. 2 μg/mL hPD-L1-his, 5 μg/mL mPD-L1-his, and 5 g/mL Rat PD-L1-his were captured onto the chip surface separately. The above 4 samples were 2-fold diluted with 1×PBST. […] The program was set. The samples were then loaded, and the program was executed. Data were analyzed using the Biacore Evaluation Software with the 1:1 binding model for kinetic fitting.

Rat PD-L1-his = Rat PD-L1-his (Rattus norvegicus, UniProt D4AE25); test: SPR (Biacore T200) affinity for Rat PD-L1-his; settings: ligand Rat-PD-L1-His, 1:1 binding model
Experimental: as §1

NCI-H292 cells = test: Internalization in human lung cancer cell line NCI-H292; type: cell-based; settings: NCI-H292, 150 nM, 2 h, 4 h, 22 h; FIG. 28
Experimental: (1) NCI-H292 cells were collected, and 20 µL was taken for cell counting. (2) The cells were resuspended to 6×10^6 cells/mL, and the cell suspension was added into two 1.5-mL EP tubes at 100 μL/tube. (3) Diluted antibody-drug conjugate (ADC) group and antibody group samples were added separately at 100 L/tube, achieving a final sample concentration of 150 nM. The mixtures were thoroughly mixed and then incubated at 4° C. in the dark for 1 h. (4) The mixtures were washed twice with pre-cooled PBS and centrifuged at 1200 rpm for 5 min at 4° C., and then the supernatants were discarded. (5) Complete medium was added at 300 μL/tube to resuspend the cells, and the cell suspensions were separately transferred to new EP tubes at 150 L/tube, with one tube kept at 4° C. and the other incubated at 37° C. (6) After 2 h, 4 h, and 22 h, 50 L of cell suspension was collected from each of the 4° C. and 37° C. tubes, transferred to new EP tubes, mixed with 1 mL of pre-cooled PBS, and centrifuged at 1200 rpm for 5 min at 4° C., and then the supernatants were discarded. […] (9) Pre-cooled PBS was then added at 100 L/tube to resuspend the cells, and the cell suspensions were analyzed on a machine. (10) The internalization rate was calculated using the following formula: Internalization (%)=positive rate4° C. […]

MC38 tumor = test: C57BL/6J mouse MC38 tumor model, ADC vs naked antibody (18.1); type: in vivo; settings: 10 mg/kg intraperitoneal, three times per week, day 7 post-administration
Experimental: 18.1. The specific procedures were as follows: On the day of cell inoculation, each C57BL/6J mouse was subcutaneously inoculated with 3×10^5 MC38 cells (0.1 mL/mouse). When the average tumor volume in mice reached about 70-80 mm^3, grouping was performed. A total of 24 mice were divided into 3 groups, and drug administration began on the day of grouping. The administration regimen was three times per week, and the route of administration was intraperitoneal injection. […] The vehicle control group was intraperitoneally injected with an equivalent volume of PBS solution. After the start of administration, the body weight and tumor volume were measured three times per week. The tumor volume was calculated as: tumor volume (mm^3)=0.5×long diameter of tumor×(short diameter of tumor)^2. The experiment was terminated on day 7 post-administration. All mice were euthanized, and tumor tissues were collected and weighed.

[4] = Table 3-1, ligand hPD-L1-His captured

Chain of hPD-L1-his (Q9NZQ7 19-290): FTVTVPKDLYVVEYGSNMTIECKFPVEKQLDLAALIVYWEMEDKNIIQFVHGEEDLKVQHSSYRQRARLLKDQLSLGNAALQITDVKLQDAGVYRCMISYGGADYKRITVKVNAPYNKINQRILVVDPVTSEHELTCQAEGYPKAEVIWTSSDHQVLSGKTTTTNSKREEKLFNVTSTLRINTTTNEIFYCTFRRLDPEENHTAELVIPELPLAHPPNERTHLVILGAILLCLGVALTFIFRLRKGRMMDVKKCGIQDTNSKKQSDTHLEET
Chain of mPD-L1-his (Q9EP73 19-290): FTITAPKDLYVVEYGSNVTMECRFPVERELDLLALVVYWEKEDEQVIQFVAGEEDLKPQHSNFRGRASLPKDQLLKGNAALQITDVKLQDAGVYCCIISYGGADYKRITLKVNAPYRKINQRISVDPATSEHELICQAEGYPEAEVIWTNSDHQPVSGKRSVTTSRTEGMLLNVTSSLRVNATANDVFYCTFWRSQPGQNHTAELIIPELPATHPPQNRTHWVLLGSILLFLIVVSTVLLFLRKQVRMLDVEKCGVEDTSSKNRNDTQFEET
Chain of Rat PD-L1-his (D4AE25 1-290): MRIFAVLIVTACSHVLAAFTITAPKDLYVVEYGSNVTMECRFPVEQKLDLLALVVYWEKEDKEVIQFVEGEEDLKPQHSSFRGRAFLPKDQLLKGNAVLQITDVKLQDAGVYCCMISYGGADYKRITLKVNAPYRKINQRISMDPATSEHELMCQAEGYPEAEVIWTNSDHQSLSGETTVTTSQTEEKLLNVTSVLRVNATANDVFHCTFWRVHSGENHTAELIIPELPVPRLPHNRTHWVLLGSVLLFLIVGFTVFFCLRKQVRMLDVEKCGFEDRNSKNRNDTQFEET

Which Inhibition % (CT26 hPD-L1-EX cells [1]) does the source give for `Nc1cc(F)ccc1NC(=O)c1ccc(CNC(=O)/C=C/c2cccnc2)cc1` [Chidamide, reference compound] here?
Its Inhibition % is 11.73%.

What about the OD490 (CT26 hPD-L1-EX cells [1]) of the same compound?
The OD490 was 1.0283 and 1.0841.

And the inhibition at 5 µM (CT26 hPD-L1-EX cells [1]; Mus musculus, CT26, 48 h)?
Its inhibition at 5 µM is 16.1%.

What about the Inhibition % (CT26 hPD-L1-EX cells [2]) of the same compound?
Its Inhibition % is 14.58% and 12.16%.

And the OD450 (CT26 hPD-L1-EX cells [2])?
Its OD450 is 1.9014 and 1.9554 and 1.7934.

What about the inhibition at 10 µM (CT26 hPD-L1-EX cells [2]; Mus musculus, CT26, 48 h) of the same compound?
Its inhibition at 10 µM is 19.4%.

What about the IC50 [3] of the same compound?
The IC50 was 823 nM.

What does the source list for atezolizumab [Ate antibody]?
ka (hPD-L1-his; [4]): 1.26e+06 M⁻¹ s⁻¹; kd (1/s) (hPD-L1-his; [4]): <10^−5 1/s; ka (hPD-L1-his; Table 3-2, ligand hPD-L1-His): 2.46e+06 M⁻¹ s⁻¹; kd (hPD-L1-his; Table 3-2, ligand hPD-L1-His): <1e-05 s⁻¹; Kd (Cyno PD-L1-his): 0.0826 nM; ka (Cyno PD-L1-his): 1.58e+06 M⁻¹ s⁻¹; kd (Cyno PD-L1-his): 0.00013 s⁻¹; ka (mPD-L1-his): 1.76e+06 M⁻¹ s⁻¹; kd (mPD-L1-his): 0.000119 s⁻¹; ka (Rat PD-L1-his): 2.86e+06 M⁻¹ s⁻¹; kd (Rat PD-L1-his): 0.000981 s⁻¹; tumor cell internalization rate (NCI-H292 cells): increased over time; Inhibition % (CT26 hPD-L1-EX cells [1]): 4.42% and 5.66%; OD490 (CT26 hPD-L1-EX cells [1]): 1.1715 and 1.1587; Inhibition % (CT26 hPD-L1-EX cells [2]): 13.08% and 4.39% and 10.94%; OD450 (CT26 hPD-L1-EX cells [2]): 2.1282 and 1.9824 and 1.9349; tumor growth inhibition rate TGI (%) (MC38 tumor): 16.26%; tumor volume (MC38 tumor): 701.09 mm^3
